Test results: ChEMBL document CHEMBL1201862, “PubChem BioAssay data set” (2004)
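Compound exposure: 48 hours, 5 concentrations, 96-well plates. GI50 is the concentration that inhibits growth by half.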 The source made the active and inactive calls. Rule as the data show it: active = GI50 up to about 1.1 µM and inactive = higher.

Legend:
Assay in all cases: NCI-60 cell line screen, 48 h
SF-295 = system: SF-295
SK-MEL-5 = system: SK-MEL-5
MCF7 = system: MCF7
MDA-N = system: MDA-N
786-0 = system: 786-0
OVCAR-3 = system: OVCAR-3
UACC-62 = system: UACC-62
U-251 = system: U-251
HOP-92 = system: HOP-92
SK-OV-3 = system: SK-OV-3
HT-29 = system: HT-29
MDA-MB-231 = system: MDA-MB-231
BT-549 = system: BT-549
HCC 2998 = system: HCC 2998
SF-268 = system: SF-268
HOP-62 = system: HOP-62
ACHN = system: ACHN
COLO 205 = system: COLO 205
MOLT-4 = system: MOLT-4
RXF 393 = system: RXF 393
TK-10 = system: TK-10
SW-620 = system: SW-620
A549 = system: A549
OVCAR-8 = system: OVCAR-8
SF-539 = system: SF-539
UO-31 = system: UO-31
DU-145 = system: DU-145
T47D = system: T47D
OVCAR-4 = system: OVCAR-4
IGROV-1 = system: IGROV-1
NCI-H460 = system: NCI-H460
NCI-H23 = system: NCI-H23
PC-3 = system: PC-3
SN12C = system: SN12C
NCI-H226 = system: NCI-H226
SNB-75 = system: SNB-75
HCT-15 = system: HCT-15
OVCAR-5 = system: OVCAR-5
EKVX = system: EKVX
LOX IMVI = system: LOX IMVI
UACC-257 = system: UACC-257
MDA-MB-435 = system: MDA-MB-435
NCI-H522 = system: NCI-H522
HL-60 = system: HL-60
CAKI-1 = system: CAKI-1
HCT-116 = system: HCT-116
M14 = system: M14
SNB-19 = system: SNB-19
Malme-3M = system: Malme-3M
K562 = system: K562
NCI/ADR-RES = system: NCI/ADR-RES
RPMI-8226 = system: RPMI-8226
KM12 = system: KM12
Hs-578T = system: Hs-578T
SK-MEL-2 = system: SK-MEL-2
SK-MEL-28 = system: SK-MEL-28
A498 = system: A498
SR = system: SR
CCRF-CEM = system: CCRF-CEM

Measured: GI50

COc1cc(/C=C2\C[C@H]3[C@@H]4CC=C5C[C@@H](O)CC[C@]5(C)[C@H]4CC[C@]3(C)C2=O)cc(OC)c1OC
active: HL-60 0.366 µM
inactive: SF-295 19 µM | SK-MEL-5 12.5 µM | MCF7 20.8 µM | MDA-N 29.1 µM | 786-0 26.6 µM | OVCAR-3 26.2 µM | UACC-62 37.1 µM | U-251 32.1 µM | HOP-92 30.3 µM | SK-OV-3 53.1 µM | HT-29 19.9 µM | MDA-MB-231 26.4 µM | BT-549 33.4 µM | HCC 2998 27.6 µM | SF-268 51.5 µM | HOP-62 26.4 µM | ACHN 30.5 µM | COLO 205 20.7 µM | MOLT-4 16.3 µM | RXF 393 19.6 µM | TK-10 37.2 µM | SW-620 39.6 µM | A549 13.2 µM | OVCAR-8 34.6 µM | SF-539 49 µM | UO-31 17.5 µM | DU-145 39.1 µM | T47D 12.6 µM | OVCAR-4 39.4 µM | IGROV-1 64.1 µM | NCI-H460 27.4 µM | NCI-H23 35.3 µM | PC-3 28.1 µM | SN12C 26.1 µM | NCI-H226 31.4 µM | SNB-75 30.6 µM | OVCAR-5 39.6 µM | EKVX 33.5 µM | LOX IMVI 22 µM | UACC-257 29.2 µM | MDA-MB-435 29.8 µM | NCI-H522 16.9 µM | CAKI-1 36.9 µM | HCT-116 20.1 µM | M14 24.4 µM | SNB-19 27.7 µM | Malme-3M 32.7 µM | K562 12.2 µM | NCI/ADR-RES 27.5 µM | RPMI-8226 6.98 µM | KM12 27.2 µM | Hs-578T 40.6 µM | SK-MEL-2 28.8 µM | SK-MEL-28 45.7 µM | A498 51.6 µM
22.1 µM: HCT-15

N=c1c2c(=S)n(-c3ccccc3)c(=S)n(-c3ccccc3)c2nc(SCCN2CCCC2)n1-c1ccccc1
active: SR 0.136 µM | 786-0 0.622 µM | CCRF-CEM 0.347 µM | MOLT-4 0.08 µM | HL-60 0.183 µM | K562 0.762 µM | RPMI-8226 0.341 µM
1.6 µM: HCT-15
inactive: SF-295 15.2 µM | SK-MEL-5 3.27 µM | MDA-N 2.05 µM | OVCAR-3 1.68 µM | UACC-62 1.63 µM | U-251 2.52 µM | HOP-92 1.71 µM | SK-OV-3 12.6 µM | HT-29 1.81 µM | MDA-MB-231 1.78 µM | BT-549 1.92 µM | HCC 2998 1.31 µM | SF-268 2.7 µM | HOP-62 3.4 µM | ACHN 1.77 µM | COLO 205 1.55 µM | RXF 393 1.41 µM | TK-10 1.59 µM | SW-620 1.76 µM | A549 2.39 µM | OVCAR-8 2.01 µM | SF-539 5.02 µM | DU-145 1.76 µM | T47D 2.8 µM | OVCAR-4 3 µM | IGROV-1 1.77 µM | NCI-H460 1.72 µM | NCI-H23 2.9 µM | PC-3 1.75 µM | SN12C 1.86 µM | NCI-H226 7.59 µM | SNB-75 2.66 µM | OVCAR-5 17.5 µM | EKVX 2.49 µM | LOX IMVI 1.63 µM | UACC-257 1.61 µM | MDA-MB-435 1.87 µM | NCI-H522 1.72 µM | CAKI-1 1.56 µM | HCT-116 2.09 µM | M14 1.6 µM | SNB-19 15.2 µM | Malme-3M 2.17 µM | NCI/ADR-RES 6.44 µM | KM12 5.2 µM | Hs-578T 3.9 µM | SK-MEL-2 5.94 µM | SK-MEL-28 3.69 µM | A498 11 µM

O=S(=O)(Cc1ccccc1)c1nnc(S(=O)(=O)c2ccc(Cl)cc2)s1
inactive: SF-295 24.1 µM | SK-MEL-5 17.9 µM | MCF7 48 µM | MDA-N 18.1 µM | 786-0 23.6 µM | OVCAR-3 20.5 µM | UACC-62 27 µM | U-251 33 µM | SK-OV-3 23.3 µM | HT-29 22.5 µM | MDA-MB-231 34.8 µM | BT-549 20 µM | SF-268 19.5 µM | HOP-62 21.4 µM | ACHN 19.4 µM | COLO 205 16 µM | MOLT-4 3.39 µM | RXF 393 17.3 µM | TK-10 12.2 µM | SW-620 23.9 µM | A549 27.5 µM | OVCAR-8 19 µM | SF-539 18.5 µM | UO-31 21.3 µM | DU-145 17 µM | T47D 31.6 µM | OVCAR-4 24.4 µM | NCI-H460 21.2 µM | NCI-H23 23.3 µM | PC-3 21.8 µM | SN12C 20.2 µM | SNB-75 16.6 µM | OVCAR-5 24.8 µM | EKVX 25.6 µM | UACC-257 19.9 µM | MDA-MB-435 27.1 µM | NCI-H522 14 µM | CAKI-1 24.3 µM | HCT-116 19.5 µM | M14 17.7 µM | SNB-19 19.6 µM | K562 32.2 µM | NCI/ADR-RES 25 µM | RPMI-8226 15.9 µM | KM12 25.7 µM | Hs-578T 18.1 µM | SK-MEL-2 22.8 µM | SK-MEL-28 19.9 µM | A498 22 µM
20.9 µM: HCT-15
